Measurements reported in ChEMBL document CHEMBL1136269, “Discovery of a series of (4,5-dihydroimidazol-2-yl)-biphenylamine 5-HT7 agonists” (Bioorg Med Chem Lett, 2003).
pKi: −log10 of the molar value.

Assays:
[1] = target: T1, Adrenergic receptor alpha-2 (Rattus norvegicus, UniProt P22086+P19328+P22909); assay: Affinity for Alpha-2 adrenergic receptor of rat cortical membranes
T1 sequence (P22086 whole entry): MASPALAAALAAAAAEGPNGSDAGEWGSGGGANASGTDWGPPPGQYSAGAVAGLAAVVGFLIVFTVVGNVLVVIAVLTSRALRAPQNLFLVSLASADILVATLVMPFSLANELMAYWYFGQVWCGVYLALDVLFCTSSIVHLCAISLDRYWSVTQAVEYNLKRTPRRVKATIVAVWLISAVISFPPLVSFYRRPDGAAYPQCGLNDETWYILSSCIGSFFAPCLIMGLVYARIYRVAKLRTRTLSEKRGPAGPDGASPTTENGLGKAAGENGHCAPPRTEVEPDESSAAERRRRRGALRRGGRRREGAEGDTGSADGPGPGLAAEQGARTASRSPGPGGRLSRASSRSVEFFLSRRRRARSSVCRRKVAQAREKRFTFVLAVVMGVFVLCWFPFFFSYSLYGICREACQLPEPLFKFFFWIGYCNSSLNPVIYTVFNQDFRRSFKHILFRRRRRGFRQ
T1 sequence (P19328 whole entry): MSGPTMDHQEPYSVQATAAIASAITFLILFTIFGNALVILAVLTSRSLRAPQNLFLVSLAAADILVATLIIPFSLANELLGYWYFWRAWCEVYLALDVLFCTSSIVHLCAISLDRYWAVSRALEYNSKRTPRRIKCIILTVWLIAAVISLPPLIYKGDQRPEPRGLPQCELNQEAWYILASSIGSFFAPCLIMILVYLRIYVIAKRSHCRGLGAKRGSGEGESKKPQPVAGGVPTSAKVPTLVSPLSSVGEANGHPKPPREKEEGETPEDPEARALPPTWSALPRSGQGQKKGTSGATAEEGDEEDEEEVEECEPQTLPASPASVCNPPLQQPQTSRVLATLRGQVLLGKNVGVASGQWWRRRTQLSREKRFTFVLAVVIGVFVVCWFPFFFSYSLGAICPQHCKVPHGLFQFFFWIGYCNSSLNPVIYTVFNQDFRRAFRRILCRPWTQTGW
T1 sequence (P22909 whole entry): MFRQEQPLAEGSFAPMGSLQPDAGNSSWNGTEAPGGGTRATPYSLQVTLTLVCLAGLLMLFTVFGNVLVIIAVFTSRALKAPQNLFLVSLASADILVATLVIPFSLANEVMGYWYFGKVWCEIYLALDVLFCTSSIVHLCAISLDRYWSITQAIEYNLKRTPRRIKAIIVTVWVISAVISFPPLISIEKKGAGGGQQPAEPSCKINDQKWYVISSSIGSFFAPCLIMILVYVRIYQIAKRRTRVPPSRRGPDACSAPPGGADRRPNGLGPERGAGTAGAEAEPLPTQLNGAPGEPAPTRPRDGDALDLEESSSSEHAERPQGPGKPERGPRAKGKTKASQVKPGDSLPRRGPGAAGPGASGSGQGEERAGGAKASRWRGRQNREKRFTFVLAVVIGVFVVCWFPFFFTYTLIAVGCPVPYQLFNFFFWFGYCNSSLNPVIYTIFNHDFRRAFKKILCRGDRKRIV

[2] = target: T2, Adrenergic receptor alpha-1 (Rattus norvegicus, UniProt P15823+P23944+P43140); assay: Affinity for Alpha-1 adrenergic receptor of rat cortical membranes
T2 sequence (P15823 whole entry): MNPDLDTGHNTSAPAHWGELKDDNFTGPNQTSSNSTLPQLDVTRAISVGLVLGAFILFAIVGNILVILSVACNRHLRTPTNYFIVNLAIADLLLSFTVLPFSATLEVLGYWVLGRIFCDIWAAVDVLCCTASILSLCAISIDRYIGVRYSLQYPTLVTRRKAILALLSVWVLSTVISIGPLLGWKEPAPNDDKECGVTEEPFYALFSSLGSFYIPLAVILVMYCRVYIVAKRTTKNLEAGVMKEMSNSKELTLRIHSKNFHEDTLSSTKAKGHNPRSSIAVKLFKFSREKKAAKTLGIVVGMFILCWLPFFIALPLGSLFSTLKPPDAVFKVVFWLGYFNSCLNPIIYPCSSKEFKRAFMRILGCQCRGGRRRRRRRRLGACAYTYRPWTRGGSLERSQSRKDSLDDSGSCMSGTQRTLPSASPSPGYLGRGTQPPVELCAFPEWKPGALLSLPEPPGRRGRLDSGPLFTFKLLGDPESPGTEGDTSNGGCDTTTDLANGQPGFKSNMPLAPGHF
T2 sequence (P23944 whole entry): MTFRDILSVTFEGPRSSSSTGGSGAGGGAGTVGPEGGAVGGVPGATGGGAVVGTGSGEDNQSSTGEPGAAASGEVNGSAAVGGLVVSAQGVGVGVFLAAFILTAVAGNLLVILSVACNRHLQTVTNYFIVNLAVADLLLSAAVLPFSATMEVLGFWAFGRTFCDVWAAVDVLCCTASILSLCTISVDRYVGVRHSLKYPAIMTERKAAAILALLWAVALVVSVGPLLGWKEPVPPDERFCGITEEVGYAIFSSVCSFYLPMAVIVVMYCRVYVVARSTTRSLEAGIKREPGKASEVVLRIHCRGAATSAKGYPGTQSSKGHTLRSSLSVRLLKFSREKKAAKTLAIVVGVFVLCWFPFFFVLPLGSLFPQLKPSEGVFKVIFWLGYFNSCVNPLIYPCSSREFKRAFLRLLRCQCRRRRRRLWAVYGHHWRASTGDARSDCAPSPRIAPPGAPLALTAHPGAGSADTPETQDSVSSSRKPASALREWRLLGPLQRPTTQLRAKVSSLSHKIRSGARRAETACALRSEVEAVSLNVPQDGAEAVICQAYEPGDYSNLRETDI
T2 sequence (P43140 whole entry): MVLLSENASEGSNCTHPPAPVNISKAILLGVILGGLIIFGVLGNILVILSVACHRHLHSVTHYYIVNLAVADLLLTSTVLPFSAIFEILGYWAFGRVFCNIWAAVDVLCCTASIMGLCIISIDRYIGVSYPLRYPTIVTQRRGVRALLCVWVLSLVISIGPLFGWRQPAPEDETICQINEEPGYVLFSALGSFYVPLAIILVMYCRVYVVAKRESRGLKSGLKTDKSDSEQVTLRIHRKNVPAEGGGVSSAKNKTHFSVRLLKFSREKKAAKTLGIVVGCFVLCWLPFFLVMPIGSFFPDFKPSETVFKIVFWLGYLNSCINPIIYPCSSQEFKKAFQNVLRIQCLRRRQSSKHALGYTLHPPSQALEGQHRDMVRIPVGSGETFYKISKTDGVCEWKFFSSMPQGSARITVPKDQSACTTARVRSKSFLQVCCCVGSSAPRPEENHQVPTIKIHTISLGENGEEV

[3] = target: 5-hydroxytryptamine receptor 7 (Rattus norvegicus, UniProt P32305); assay: Inhibition of [3H]-5-CT binding to 5-hydroxytryptamine 7 receptor of rat cortical membranes; format: cell membranes, Membrane
Sequence of 5-hydroxytryptamine receptor 7 (P32305 whole entry): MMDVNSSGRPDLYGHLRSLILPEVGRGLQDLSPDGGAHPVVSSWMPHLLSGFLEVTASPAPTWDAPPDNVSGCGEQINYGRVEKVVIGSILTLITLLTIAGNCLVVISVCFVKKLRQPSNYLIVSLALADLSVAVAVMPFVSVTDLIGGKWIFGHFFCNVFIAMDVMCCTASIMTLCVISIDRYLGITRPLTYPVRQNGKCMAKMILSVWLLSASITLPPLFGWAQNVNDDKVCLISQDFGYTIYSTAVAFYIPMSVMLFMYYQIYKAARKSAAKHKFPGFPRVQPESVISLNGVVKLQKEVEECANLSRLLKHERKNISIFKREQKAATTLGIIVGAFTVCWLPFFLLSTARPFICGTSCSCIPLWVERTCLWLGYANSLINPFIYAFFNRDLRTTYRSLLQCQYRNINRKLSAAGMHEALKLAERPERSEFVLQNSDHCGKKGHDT

Compound | Log Ki [1] | Log Ki [2] | pKi [3]
COc1ccc(-c2cccc(NC3=NCCN3)c2C)c(OC)c1 | -7.13 | -6.68 | 7.39
CC(=O)c1cccc(-c2cccc(NC3=NCCN3)c2C)c1.Cl | -7.49 | -7.05 | 6.81
Cc1c(NC2=NCCN2)cccc1-c1ccccc1 | -7.71 | -6.68 | 7.79
Cc1c(NC2=NCCN2)cccc1-c1cccc(Cl)c1 | -7.62 | -6.88 | 7.58
Cc1c(NC2=NCCN2)cccc1-c1cccc(C(F)(F)F)c1 | -7.1 | -6.59 | 7.34
COc1cccc(-c2cccc(NC3=NCCN3)c2C)c1 | -8 | -7.36 | 7.45
Cc1c(NC2=NCCN2)cccc1-c1cccc(C(C)C)c1 | -6.96 | -5.92 | 6.74
Cc1c(NC2=NCCN2)cccc1-c1cccc(F)c1 | -7.58 | -6.56 | 7.55
Cc1c(NC2=NCCN2)cccc1-c1ccsc1 | -7.96 | -7.16 | 7.50

Results, then the compound that gave them:

Log Ki [1] | Log Ki [2] | pKi [3] | Compound
-7.66 | -7.04 | 6.77 | Cc1c(NC2=NCCN2)cccc1-c1cccc(C#N)c1.Cl
-7.75 | -6.78 | 7.67 | Cc1cccc(-c2cccc(NC3=NCCN3)c2C)c1
-8.29 | -6.59 | 6.59 | Cc1c(NC2=NCCN2)cccc1-c1cccnc1
-7.59 | -6.58 | 7.56 | COc1ccc(-c2cccc(NC3=NCCN3)c2C)cc1
-8.21 | -6.99 | 7.78 | Cc1c(NC2=NCCN2)cccc1-c1cccs1
